Activity calls are given as the source filed them.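 The calls were made as follows: active = more than half of replicate measurements showing over 20% loss of kinase signal relative to plate controls; inconclusive = some but at most half of replicates over 20% loss; inactive = no replicate over 20% signal loss.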
The compounds below were run against Glycogen synthase kinase-3 alpha (Homo sapiens) (UniProt P49840) (assay: concentration-response blocking of human GSK3A – biochemical, luminescence, cell-free homogeneous, retest, dose response (AID 463203)). Details: GSK-3 alpha enzyme, ADP-Glo luminescence, 60 min.
Chain of Glycogen synthase kinase-3 alpha (Homo sapiens) (P49840 whole entry, looked up): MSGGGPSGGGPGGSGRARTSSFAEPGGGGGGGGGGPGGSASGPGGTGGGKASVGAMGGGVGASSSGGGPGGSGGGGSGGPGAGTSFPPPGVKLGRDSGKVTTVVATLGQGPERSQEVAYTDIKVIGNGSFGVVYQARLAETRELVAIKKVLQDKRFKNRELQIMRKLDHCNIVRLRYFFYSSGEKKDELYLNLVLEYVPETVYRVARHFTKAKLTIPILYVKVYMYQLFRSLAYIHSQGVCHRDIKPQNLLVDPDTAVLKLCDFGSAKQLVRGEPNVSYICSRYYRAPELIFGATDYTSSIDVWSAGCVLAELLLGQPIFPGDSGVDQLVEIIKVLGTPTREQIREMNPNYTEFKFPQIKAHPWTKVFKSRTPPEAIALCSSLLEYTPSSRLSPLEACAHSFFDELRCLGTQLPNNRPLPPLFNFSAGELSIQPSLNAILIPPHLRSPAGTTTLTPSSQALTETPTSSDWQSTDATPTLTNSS

Compound | AC50
CC(=O)c1cccc(NC(=S)NC(=O)CC(C)C)c1 | > 30 µM (inactive)
O=C(N/N=C/c1ccc(O)c(O)c1)C1CC1 | > 30 µM (inactive)
Cc1cccc(Nc2ncccc2C(=O)O)c1C | > 30 µM (inactive)
COc1cc(C2CC(=O)c3c([nH]c(C(=O)OCCOC(C)C)c3C)C2)cc(OC)c1OC (centres undefined) | > 30 µM (inactive)
CCOc1cccc(-c2c(C(=O)N/N=C(\C)c3ccncc3)nnn2-c2nonc2N)c1 | 1.45 µM
Cc1ccc(C(=O)N2NC(c3ccccc3F)C3C(=O)N(c4cccc(C)c4)C(=O)C32)cc1 (centres undefined) | > 30 µM (inactive)
CCOc1ccc2ccccc2c1/C=N/n1cncn1 | > 30 µM (inactive)
COCCCNC(=O)C(=O)NC1CCCCCC1 | > 30 µM (inactive)
Cc1cc(OC(=O)c2c(C)cc(OC(=O)c3c(C)cc(O)cc3O)cc2O)cc(O)c1C(=O)O | > 30 µM (inactive)
Fc1ccccc1N1CCN(CCCNc2ccc3nncn3n2)CC1 | > 30 µM (inactive)
CCNc1cc(N2CCCC2)ccc1[N+](=O)[O-] | > 30 µM (inactive)
Cc1ccc(C)c(Sc2ccc(NC(=O)CCl)cc2)c1 | > 30 µM (inactive)
C=CCNC(=S)N/N=C(\C)c1ccc(OC)cc1 | > 30 µM (inactive)
COc1ccc(/C=C/c2nc(N)nc(-c3ccccc3O)n2)cc1OC | > 30 µM (inactive)
CCN(CC)CCCNc1ncnc2scc(-c3ccc(F)cc3)c12 | > 30 µM (inactive)
O=C(O)c1cc(-c2ccc(/C=N/N3C(=O)C4C5C=CC(C6CC56)C4C3=O)o2)ccc1Cl (centres undefined) | > 30 µM (inactive)
CC(C)(C)c1ccc(/C=C2\Oc3cc(O)ccc3C2=O)cc1 | > 30 µM (inactive)
CCc1ccc(C2CC(c3ccccc3Cl)Nc3nc(N)nn32)cc1 (centres undefined) | > 30 µM (inactive)
O=C(O)c1ccc(N=c2oc3cc(O)ccc3cc2C(=O)NCc2ccccc2)cc1 | 5.83 µM
COCCNc1cc(N)c([N+](=O)[O-])cc1[N+](=O)[O-] | > 30 µM (inactive)
CCC(C)Sc1nc2c(c(=O)[nH]1)C(c1cccs1)C1=C(CCCC1=O)N2 (centres undefined) | > 30 µM (inactive)
COc1cc(/C=N/NC(=O)c2ccncc2)ccc1OCCN1CCCCC1 | > 30 µM (inactive)
O=C(O)Cn1c(=O)c2c3c(sc2n(Cc2ccccc2)c1=O)CCCC3 | > 30 µM (inactive)
CCOc1ccccc1C1N(c2ccc(OC)cc2)C(=O)C2CCCN21 (centres undefined) | > 30 µM (inactive)
CCOC(=O)C1CCCN(Cc2sccc2C)C1 (centres undefined) | > 30 µM (inactive)
CC1CCCN(Cc2c(O)ccc3c2O/C(=C\c2ccco2)C3=O)C1 (centres undefined) | 9.29 µM

Compound | AC50
Cc1ccc2nc3c(cc2c1)c(NS(=O)(=O)c1ccccc1)nn3CC(C)C | > 30 µM (inactive)
COCCNc1nc(C)cc(-c2cc(C(=O)NC3CCCC3)on2)n1 | > 30 µM (inactive)
S=C(Nc1ccc2c(c1)OCCO2)Nc1ccccc1Cl | > 30 µM (inactive)
O=C(CSc1ccccn1)Nc1ccccc1F | > 30 µM (inactive)
Cc1cccc(OCC(=O)Nc2ccc3c(c2)C(=O)NC3=O)c1 | > 30 µM (inactive)
COc1cc2c(ccc3cc(OC)c(OC)c(O)c32)cc1O | 20.8 µM
CC(C)C(=O)NC(=S)/C=C1/N(C)c2ccccc2C1(C)C | > 30 µM (inactive)
CCn1c(C)nc2cc(-c3nnc(-c4c(-c5ccccc5)noc4C)o3)ccc21 | > 30 µM (inactive)
COC(=O)c1cn(C(=O)c2ccccc2F)nc1N | > 30 µM (inactive)
CC(=O)c1cccc(-c2ccc3c(=O)[nH]c(Nc4ccccc4)cc3c2)c1 | > 30 µM (inactive)
S=C(NCc1ccccc1)Nc1cccc2cnccc12 | > 30 µM (inactive)
COc1ccccc1Nc1nc(C)cc(C)n1 | > 30 µM (inactive)
CCn1c(SCc2nc3sc(C(=O)O)c(C)c3c(=O)[nH]2)nc2ccccc21 | 10.8 µM
COc1ccc(OC)c(C2=Nn3c(nnc3-c3ccncc3)SC2)c1 | 1.5 µM
O=C(O)c1ccc2c(c1)C(=O)N(CCCCCCCN1C(=O)c3ccc(C(=O)O)cc3C1=O)C2=O | 22.2 µM
CC1(C)CC(=O)C(C=NCCc2ccc(O)cc2)=C(O)C1 | > 30 µM (inactive)
CNc1ccc(/C=C/C(=O)c2ccc3c(c2)OCCO3)cc1[N+](=O)[O-] | > 30 µM (inactive)
Cc1cc(NC(=O)c2cccc(S(=O)(=O)N3CC(c4ccccc4)CC3=O)c2)no1 (centres undefined) | > 30 µM (inactive)
CCOC(=O)c1cc(-c2ccc(F)cc2)n(CC(=O)NCc2cccnc2)c1C | > 30 µM (inactive)
Cc1cccc(C)c1NC(=O)COC(=O)Cc1ccsc1 | > 30 µM (inactive)
Clc1ccc(-c2nnc(SCc3nc(-c4ccccc4)no3)o2)cc1 | > 30 µM (inactive)
COc1ccccc1N1CCN(CCC(=O)Nc2cccc(Cl)c2)CC1 | 19.3 µM
COc1ccc2nc(NC(=O)CSc3cn[nH]n3)sc2c1 | 9.56 µM
Cc1ccnc(NC(=O)CCC(=O)N(CC(=O)NCc2ccccc2)Cc2ccco2)c1 | 13.4 µM
S=C(Nc1cccc(Cl)c1)Nc1cccc2cnccc12 | > 30 µM (inactive)
COc1ccc(CNC(=O)c2cc(COc3c(F)cccc3F)on2)cc1OC | > 30 µM (inactive)

Compound | AC50
O=C(COc1ccccc1F)NC1CC1 | > 30 µM (inactive)
COc1ccc(NC(=O)Nc2ccc(F)cc2)c(C)c1 | > 30 µM (inactive)
N#CC1=C(S)N(c2ccccc2)C(c2ccco2)NC1=O (centres undefined) | > 30 µM (inactive)
CSc1nc2n(n1)C(c1ccccn1)C1=C(CC(C)(C)CC1=O)N2 (centres undefined) | > 30 µM (inactive)
COc1ccc(-c2cn3cccnc3n2)cc1NC(=O)C1CCCC1 | > 30 µM (inactive)
CCSc1nc2sc3c(c2c(=O)n1CC)CC(C)(C)OC3 | > 30 µM (inactive)
COc1c(/C=C2\SC(=Nc3ccccc3Cl)NC2=O)cccc1[N+](=O)[O-] | > 30 µM (inactive)
Cc1ccc2oc(=O)c3cnn(CC(=O)N4CCN(c5ccccc5)CC4)c3c2c1 | > 30 µM (inactive)
Cc1ccc(S(=O)(=O)N2C(=O)/C(=C3\SC(=S)NC3=O)c3ccccc32)cc1 | > 30 µM (inactive)
CCn1ccc(C(=O)Nc2ccsc2C(=O)OC)n1 | 30.8 µM
Cc1ccc(-n2nnnc2SCc2nnc(-c3ccccc3Br)o2)cc1 | > 30 µM (inactive)
Cn1c(O)c(C=NCCc2c[nH]c3ccccc23)c(=O)n(C)c1=O | 27.9 µM
Cc1[nH]nc2c1C(c1ccsc1)C1=C(CC(C)(C)CC1=O)N2 (centres undefined) | 1.06 µM
C/C(=N\O)C(=O)NCCCn1ccnc1 | > 30 µM (inactive)
Cc1nc(Nc2ccc(F)cc2)nc(Nc2ccc(F)cc2)c1[N+](=O)[O-] | > 30 µM (inactive)
COc1ccc(N=c2oc3c(OC)cccc3cc2C(=O)NCc2ccco2)cc1OC | > 30 µM (inactive)
CCc1ccc(C2CC(c3ccc(Cl)cc3)n3nc(N)nc3N2)cc1 (centres undefined) | > 30 µM (inactive)
Cc1nc2sc(C(N)=O)c(N)c2c2c1CCCC2 | 28 µM
COC(=O)c1sccc1-c1ccc(C(N)=O)o1 | 26.8 µM
COc1cccc(-n2c(SCC(=O)NC3CCCC3)nnc2-c2ccco2)c1 | > 30 µM (inactive)
C[C@H](CO)N1C[C@H](C)[C@@H](CN(C)S(=O)(=O)c2ccccc2)Oc2c(NC(=O)c3ccncc3)cccc2C1=O | > 30 µM (inactive)
O=C1CCCC2=C1C(c1cccc(O)c1)c1c(ccc3ncccc13)N2 (centres undefined) | > 30 µM (inactive)
Cc1ccc(C(=O)c2cc(C)sc2NC(=O)CN2CCN(C(=O)c3ccco3)CC2)cc1 | > 30 µM (inactive)
CN(C(=O)Oc1ccc([N+](=O)[O-])cc1)c1ccccc1 | > 30 µM (inactive)
COc1ccccc1N1CC(C(=O)Nc2nc(C)cs2)CC1=O (centres undefined) | > 30 µM (inactive)
CC1(C)CC(=O)C(C(c2ccncc2)C2C(=O)CC(C)(C)CC2=O)C(=O)C1 | > 30 µM (inactive)

Compound | AC50
COc1ccc(N=Cc2c(O)[nH]c3ccccc23)cc1OC | 20.3 µM
COc1cc(C2C(C#N)=C(N)Oc3n[nH]c(-c4cccs4)c32)cc(OC)c1O (centres undefined) | > 30 µM (inactive)
Oc1cccc(Nc2c3ccccc3nc3ccccc23)c1 | > 30 µM (inactive)
COc1ccccc1N=c1oc2cc(O)ccc2cc1C(N)=O | 4.68 µM
COc1cccc(/C=N/NC(=O)C(=O)N2CCCC2)c1OC | > 30 µM (inactive)
CCOc1ccc2[nH]cc(S(=O)(=O)c3ccc(C)cc3)c(=O)c2c1 | > 30 µM (inactive)
O=[N+]([O-])c1cc(S(=O)(=O)c2ccc(N3CCCCC3)c([N+](=O)[O-])c2)ccc1N1CCCCC1 | > 30 µM (inactive)
CCOC(=O)c1nc(NCc2cccc(OC)c2)c2ccccc2n1 | > 30 µM (inactive)
O=C(NCCc1csc(-c2cccnc2)n1)c1ccc(Br)o1 | 17.8 µM
Cc1ccc(-c2c3c(nc4sc(C(N)=O)c(N)c24)CCC3)cc1 | 5.39 µM
CCCc1cc(C(N)=O)c(NC(=O)C2CCCO2)s1 (centres undefined) | > 30 µM (inactive)
COc1ccc(-c2nnc(-c3ccccc3O)o2)cc1 | > 30 µM (inactive)
COCCCNc1nc(N)c([N+](=O)[O-])c(N2CCCCCC2)n1 | 9.97 µM
CN(C(=O)/C=C/c1ccc2c(c1)OCO2)c1ccccc1 | 6.73 µM
CCOC(=O)C1CCN(c2c(C(=O)c3ccccc3)cnc3ccc(CC)cc23)CC1 | > 30 µM (inactive)
CC1=C(C(=O)OC(C)C)C(c2cccc(F)c2)n2ncnc2N1 (centres undefined) | > 30 µM (inactive)
COc1ccc2cc(C(=O)NCc3ccco3)c(=O)oc2c1 | > 30 µM (inactive)
CCOC(=O)N1CCc2c(sc3nc(SC(C)C)n(N)c(=O)c23)C1 | > 30 µM (inactive)
Nc1c(C(=O)O)ccc2c1C(=O)c1ccccc1C2=O | 7.87 µM
CCC/C(=N/NC(=O)c1nnn(-c2nonc2N)c1CN1CCCCC1)c1ccccc1 | 18.7 µM
NC(=O)c1cc([N+](=O)[O-])ccc1NCc1ccc(N)cc1 | 8.36 µM
CCOc1ccc2nnc(-c3ccc(Br)cc3)n2n1 | > 30 µM (inactive)
O=C1CCCC2=C1C(c1ccc(Br)cc1)c1c([nH]c(=S)[nH]c1=O)N2 (centres undefined) | > 30 µM (inactive)
NC(=O)c1c(NC(=O)CN2C(=O)NC(Cc3ccccc3)C2=O)sc2c1CCC2 (centres undefined) | 20.3 µM
O=c1[nH]ncc(N/N=C\c2cccs2)c1Cl | 6.07 µM
COc1cccc(NC(=O)[C@@H]2CCCN2S(=O)(=O)c2cccc3cccnc23)c1 | 18.1 µM
